# Experimental data reported in paper PMC9434700 (Journal of medicinal chemistry, 2022).
# Tested on: mGluR2
# Conditions: monkey thalamus, compound 2 0.5 mg/kg iv 10 min before tracer
structure (smiles),measurement,value
"Cc1c(OCc2cccc(-c3ccc(C(=O)O)cc3)c2)cc2c(c1C)C(=O)C(C1CCCC1)C2 (stereo not shown) [Compound 2, Biphenyl-indanone A]",enhancement of [18F]9 Logan VT after pretreatment,~ 3.3%
